Data published in patent US20220395451A1, “NOVEL SKIN CARE COMPOSITION” (BEIERSDORF AG, priority 2019, published 2022).
Values joined by “and” are separate entries in the source; they are usually repeats but may differ in a detail not shown here. Identical values can stand only once.

Experiments:
C. acnes strain C3 = assay: Minimum inhibitory concentration (MIC) of cosmetic excipients, strain C3; type: cell-based, Cutibacterium acnes; details: % w/vol; anaerobic incubation 3 days at 37° C.; growth scored visually
Procedure: (§1) In microbiology, the MIC is the lowest concentration of a chemical which prevents visible growth of bacterium. The resulted MIC value depends both on the microorganism and the test compound. The MIC is determined by preparing concentrations series of the test compound in vitro, incubating the solutions with the separate batches of cultured bacteria, and measuring the results using agar dilution or broth microdilution. For the experiments with C. acnes strains C3 and K8, media comprising yeast extract soy peptone and dextrose were used. The MIC is determined by turbidity.
(§2) A total of 125 cosmetic excipients were tested for their compatibility with C. acnes strains C3 and K8. Hydrophilic compounds were tested in a 96-well plate liquid broth format, poorly soluble compounds were pre-dissolved in DMSO before dilution in liquid broth and hydrophobic or solid compounds were tested in an agar well diffusion test assay. The different dilutions of the test excipients in media were prepared in Falcon tubes and then distributed in a deep well plate using a multistepper. Each well received 1.2 ml and was subsequently inoculated with 120 μl of C. acnes bacteria suspension (strain C3 and K8). From the deep well plate 200 μl were transferred in each well of a clear 96 well replicate plate. The leftover was discarded. The plates were then incubated anaerobically for 3 days at 37° C. Following incubation, the test plates were visually examined and wells were scored for growth or complete growth inhibition to define the minimum inhibitory concentration.
(§3) These excipients are listed in the below table with their compatibility values for C. acnes strains C3 and K8. The compatibility values represent the MIC value of the listed ingredients with the tested C. acnes strains. At this concentration [% w/vol] the tested compound starts interfering with the growth of the tested strains. The compounds can be used in formulations at concentrations below this concentration.

C. acnes strain K8 = assay: Minimum inhibitory concentration (MIC) of cosmetic excipients, strain K8; type: cell-based, Cutibacterium acnes; details: % w/vol; anaerobic incubation 3 days at 37° C.; growth scored visually
Procedure: as §1, §2, §3

| Molecule | COMPATABILITY VALUE C3 (MIC) (C. acnes strain C3) | COMPATABILITY VALUE C3 (MIC) (C. acnes strain K8) | COM[…] C3 (MIC) (C. acnes strain C3) [%] | COM[…] C3 (MIC) (C. acnes strain K8) [%] |
| --- | --- | --- | --- | --- |
| CCCCCCC(O)CO (stereo not shown) [caprylyl glycol] | 0.18% | 0.18% | – | – |
| O=C(O)CC(O)(CC(=O)O)C(=O)O [citric acid] | 0.33% | 0.08% | – | – |
| CCO [ethanol] | – | 3.75% | – | – |
| CC(CO)CO [methylpropanediol] | 4.00% | 4.00% | – | – |
| CC(=O)Oc1c(C)c(C)c2c(c1C)CCC(C)(CCC[C@H](C)CCC[C@H](C)CCCC(C)C)O2 (stereo partly shown) [tocopheryl acetate] | 1.00% | 1.00% | – | – |
| Citric acid/citrate | – | – | 1.30 | 1.30 |
| tocopherol | 1.50% and 10.00% | 1.50% and 10.00% | – | – |
